Columns and labels:
P. falciparum Dd2 = P. falciparum Dd2 asexual blood stage SYBR Green I compound sensitivity assay; assay type: cell-based, Plasmodium falciparum; conditions: for IC50: Plasmodium falciparum, DD2, 72 h, asexual blood stage, 72 hour SYBR green assay; for Selectivity Index: P. falciparum activity versus HepG2 activity
Experimental: P. falciparum Dd2 strain parasites were cultured under standard conditions (31), using RPMI media supplemented with 0.05 mg/ml gentamycin, 0.014 mg/mL hypoxanthine (prepared fresh), 38.4 mM HEPES, 0.2% Sodium Bicarbonate, 3.4 mM Sodium Hydroxide, 0.05% O+ Human Serum (Denatured at […] for 40 min and From Interstate Blood Bank, Memphis, Tenn.) and 0.0025% Albumax). Human O+ whole blood was obtained from TSRI blood bank (La Jolla, Calif.). Leukocyte-free erythrocytes are stored at 50% hematocrit in RPMI-1640 screening media (as above, but without O+ human serum and with 2× albumax concentration) at 4° C. for one to three weeks before experimental use. Cultures were monitored every one to two days via Giemsa-stained thin smears.
(§1) Compound susceptibility was measured using the malaria SYBR Green I-based fluorescence assay (32). Asynchronous P. falciparum parasites (Dd2 strain) were cultured in standard conditions before being plated for the assays. Each compound was tested over 72 hours in technical duplicates on a twelve-point concentration curve prepared by three-fold dilution from 6.7 μM to 0.11 nM. At least three independent experiments were carried out for IC50 determination. Artemisinin and chloroquine were used as controls. IC50 values were obtained using normalized fluorescence intensity from SYBR green I and analyzed via non-linear variable slope four-parameter regression curve-fitting model in Prism 6 (GraphPad Software Inc).

HepG2 cells = assay: HepG2 cytotoxicity assay; assay type: cell-based; conditions: Homo sapiens
Experimental: The liver-stage and HepG2 toxicity assays were performed as previously reported (35). Briefly, HepG2-A16-CD81EGFP, human hepatocarcinoma HepG2 cells stably transformed to express the tetraspanin CD81 receptor (36, 37) and thus susceptible to P. berghei infection, were cultured at 37° C. in 5% CO2 in DMEM (Life Technologies, Calif.) supplemented with 10% FBS, 0.29 mg/ml glutamine, 100 unit penicillin and 100 μg/ml streptomycin. For both the P. berghei-luciferase and HepG2 cytotoxicity assays, 3×10^3 of the HepG2-A16-CD81EGFP cells in 5 μl of assay medium (DMEM without Phenol Red (Life Technologies, Calif.), 5% FBS, and 5× Pen Strep Glutamine (Life Technologies, Calif.)) at concentration 6×10^5 cells/ml were seeded in 1536-well plates (Greiner BioOne white solid bottom custom GNF mold) 20-26 hours prior to the actual infection. 18 hours prior to infection, 50 nl of compound in DMSO (0.5% final DMSO concentration per well) were transferred with Acoustic Transfer System (ATS) (Biosero) into the assay plates. Atovaquone (12-point serial dilution starting at 10 μM) and Puromycin (12-point serial dilution starting at 10 μM) were used as positive controls for Pb. liver stage assay and HepG2 cytotoxicity respectively. 0.5% DMSO was used as negative control for the both assays.
An. stephensi mosquitoes, infected with P. berghei-luciferase, were provided by the New York University Insectary. P. berghei-luciferase sporozoites were freshly dissected from the infected A. stephensi mosquito salivary glands, filtered twice through a 20 μm nylon net filter using Steriflip Vacuum-Driven Filtration System (Millipore), counted in a hemocytometer, and then adjusted to final concentration 200 sporozoites per μl in the assay media. […] The HepG2-A16-CD81EGFP cell designated for toxicity studies were left uninfected, with 5 ul of additional assay media added to each well to maintain equal concentrations of compounds with P. berghei-luciferase infected plates. After incubation at 37° C. for 48 hours the exoerythrocytic growth and HepG2-A16-CD81EGFP cell viability were quantified by a bioluminescence measurement.
The HepG2 cytotoxicity was assessed by removing the media through an inverted spin of the plates at 150 g for 30 s and addition of 2 μL of CellTiterGlo reagent (Promega diluted 1:2 with deionized water) per well using the MicroFlo liquid handler (BioTek). Immediately after addition of the luminescence reagent, the plates were vortexed for 10 s and read with an EnVision Multilabel reader (PerkinElmer). IC50 values were obtained as above.

c20S = biological target: T1, c20S (Homo sapiens, UniProt P20618+P28074); assay: Calculation of inhibition constants (inactivation kinetics), c20S; assay type: biochemical
T1 construct: purchased Boston Biochem
Experimental: (§2) The rate of AMC release was calculated in the presence of serial dilution of each inhibitor. The rate of product formation were calculated at 30 min intervals for 4 hours, and normalized to activity DMSO control to calculate inactivation curves. Kobs values for each inhibitor concentration were calculated from inactivation curves, and inhibition constants KI and kinact were calculated by non-linear regression of Kobs and inhibitor concentration using GraphPad Prism 6 software.

Pf20S = Pf20S (Plasmodium falciparum, UniProt A0A5K1K7U1+Q8IJT1); assay: Calculation of inhibition constants (inactivation kinetics), Pf20S; assay type: biochemical; conditions: Pf20S
Chain of Pf20S (A0A5K1K7U1 entry or part of it): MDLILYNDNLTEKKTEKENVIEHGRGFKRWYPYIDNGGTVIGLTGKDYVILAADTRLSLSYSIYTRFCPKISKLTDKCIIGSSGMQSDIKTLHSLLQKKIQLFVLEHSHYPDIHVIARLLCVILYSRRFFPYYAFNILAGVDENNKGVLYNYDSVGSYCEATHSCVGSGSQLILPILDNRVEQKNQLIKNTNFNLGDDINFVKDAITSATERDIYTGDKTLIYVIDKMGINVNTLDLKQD
Chain of Pf20S (Q8IJT1 entry or part of it): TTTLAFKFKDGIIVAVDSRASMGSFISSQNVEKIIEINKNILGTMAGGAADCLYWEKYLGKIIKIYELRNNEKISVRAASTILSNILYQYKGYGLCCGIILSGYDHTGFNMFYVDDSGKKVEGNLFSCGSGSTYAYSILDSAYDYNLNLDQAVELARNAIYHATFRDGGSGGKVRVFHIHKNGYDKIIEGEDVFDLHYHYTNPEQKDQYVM
Experimental: as §2

Dd2 parasites = assay: Artemisinin synergy, 72 hour SYBR green assay with co-treatment; assay type: cell-based, Plasmodium falciparum; conditions: Plasmodium falciparum, DD2; wild-type parasites treated with ART alone
Experimental: as §1

| IC50 (P. falciparum Dd2) [nM] | IC50 (Dd2 parasites) [nM] | Structure (SMILES) | IC50 (HepG2 cells) [nM] | Ki (c20S; c20S) [µM] | loss in potency to c20S (c20S; kinact/Ki, analog 1 versus carmaphycin B) [fold] | Ki (Pf20S) [nM] | Selectivity Index (P. falciparum Dd2) | increase in selectivity (P. falciparum Dd2; D-amino acid at P3 in place of L-Val of analog 1, comparator not stated) [fold] |
| --- | --- | --- | --- | --- | --- | --- | --- | --- |
|  | 19.7 to 23.3 | C[C@@H]1CC[C@H]2[C@@H](C)C(=O)O[C@@H]3O[C@@]4(C)CC[C@@H]1[C@]32OO4 [Artemisinin, artemisinin] |  |  |  |  |  |  |
| 2.92 ± 0.403 |  | CCCCCC(=O)N[C@H](Cc1c[nH]c2ccccc12)C(=O)N[C@@H](CCCC)C(=O)N[C@@H](CC(C)C)C(=O)[C@@]1(C)CO1 [Analog 19, (S)-2-((R)-2-hexanamido-3-(1H-indol-3-yl)propanamido)-N—((S)-4-methyl-1-((R)-2-methyloxiran-2-yl)-1-oxopentan-2-yl)hexanamide] | 915 ± 289 |  |  |  | 313.36 | 100 |

Second part, the compound before the results:

| Structure (SMILES) | IC50 (P. falciparum Dd2) [nM] | IC50 (Dd2 parasites) [nM] | IC50 (HepG2 cells) [nM] | Ki (c20S; c20S) [µM] | loss in potency to c20S (c20S; kinact/Ki, analog 1 versus carmaphycin B) [fold] | Ki (Pf20S) [nM] | Selectivity Index (P. falciparum Dd2) | increase in selectivity (P. falciparum Dd2; D-amino acid at P3 in place of L-Val of analog 1, comparator not stated) [fold] |
| --- | --- | --- | --- | --- | --- | --- | --- | --- |
| CCCCCC(=O)N[C@H](C(=O)N[C@@H](CCCC)C(=O)N[C@@H](CC(C)C)C(=O)[C@@]1(C)CO1)C(C)C [Analog 1, (S)-2-((S)-2-hexanamido-3-methylbutanamido)-N—((S)-4-methyl-1-((R)-2-methyloxiran-2-yl)-1-oxopentan-2-yl)hexanamide] | 4.11 ± 0.077 |  | 134 ± 86.7 | 3.74 | 3 | 2290 |  |  |
| CCCCCC(=O)N[C@@H](Cc1ccccc1)C(=O)N[C@@H](CCCC)C(=O)N[C@@H](Cc1ccccc1)C(=O)[C@@]1(C)CO1 [Analog 7, (S)-2-((S)-2-hexanamido-3-phenylpropanamido)-N—((S)-1-((R)-2-methyloxiran-2-yl)-1-oxo-3-phenylpropan-2-yl)hexanamide] | 6.7 ± 0.451 |  | 30.8 ± 13.7 |  |  |  | 4.60 |  |
| CCCCCC(=O)N[C@@H](Cc1ccc(N)cc1)C(=O)N[C@@H](CCCC)C(=O)N[C@@H](CC(C)C)C(=O)[C@@]1(C)CO1 [Analog 4, (S)-2-((S)-3-(4-aminophenyl)-2-hexanamidopropanamido)-N—((S)-4-methyl-1-((R)-2-methyloxiran-2-yl)-1-oxopentan-2-yl)hexanamide] | 5.99 ± 1.08 |  | 6.32 ± 4.99 |  |  |  | 1.06 |  |
